# Experimental data published in patent EP0661259B1, “Substituted (5,6)-dihydronaphthalenyl compounds having retinoid-like activity” (BRISTOL-MYERS SQUIBB COMPANY, priority 1994, dated 1995).
# Like-named read-outs stand apart in the source and are kept apart here.
# Legend:
# lung line L2987 = assay: Cytotoxicity assay (alamarBlue viability); assay type: cell-based; details: Homo sapiens
# Experimental: Figure 1, 2 and 3 are the cytotoxicity dose response curves for lung line L2987. […] Briefly, the assayed involved plating 1000 cells per well in a volume of 120 µL in a 96 well flat-bottom dish (Corning) on day -1. Twenty-four hours later the appropriate dilution of a compound of formula I was added in a volume of 30 µL complete medium (final volume 150 µL). The plates were sealed with a plate sealer (Dynatech Labs) to prevent evaporation. On day 5 the mylar film was removed and 15 µL of sterile alamarBlue was added to each well and the cells were incubated 37 °C 5% CO2 for two hours. Using a Vmax plate reader the optical density for each well was determined having the OD570 subtracted from the OD600. The 100% signal was determined for cells grown in complete medium containing only 0.5% DMSO. All wells were set-up in triplicate and the mean values were plotted in Figures 1, 2 and 3.
# rhino mouse = assay: Rhino mouse utriculi reduction assay; assay type: in vivo, female hairless rhino mice (hr^rh/hr^rh); details: concentration to reach 30% utriculi reduction; topical in ethanol vehicle (50ul) to dorsal area once daily for 5 days; tested range 0.00033 mM to 16.5 mM
# Experimental: Representatives from compounds of formula I were tested for their effect on utriculi reduction on rhino mouse and directly compared to all-trans retinoic acid.
# Six to nine week old female hairless rhino mice (hr^rh/hr^rh) were produced in the Bristol-Myers Squibb colony. Test retinoids in ethanol vehicle (50ul) were applied to the dorsal area (approximately 1.5 x 3 cm^2) of rhino mice once daily for 5 days (Monday to Friday). For various retinoids, a dose response was obtained with concentrations ranging from 0.00033 mM to 16.5 mM. The animals were sacrificed on the following Monday by CO2 inhalation. A 7/8" full thickness punch was taken from the central dorsal area of each animal. The epidermis of the biopsy was removed from the dermis after incubation in 0.5% acetic acid overnight at 4°C. The separated epidermis was then fixed in formalin, dehydrated with ethanol, and cleared in xylene. To determine the utriculi diameter, each epidermis sheet was placed on a glass slide in xylene. For each specimen, the diameter of 40 utricules was measured with an image analysis system (IBM PC, Image Measure program and Olympus microscope with video camera). % Utriculi reduction was calculated as (1 -(utriculi diameter in the test group)/(utriculi diammeter in the ethanol control group))× 100% [formula] […]
# [1] = L2987, L2987 experiment 2, 1000 cells per well, compound added after 24 h, read on day 5, read-out: IC50
SMILES,IC50 (lung line L2987; L2987) [µM],IC50 (lung line L2987; [1]) [µM],ED30 (rhino mouse)
"CC1=C(/C=C/C(C)=C/C=C/C(C)=C/C(=O)O)C(C)(C)CCC1 [All trans retinoic acid, reference compound]",68,,
CC1(C)CC=C(c2ccccc2)c2cc(C(=O)Nc3ccc(C(=O)O)cc3)ccc21 [I^4a],,28,
CC1(C)CC=C(c2ccccc2)c2cc(C(=O)Oc3ccc(C(=O)O)cc3)ccc21 [I^10a],,47,
CC1(C)CC=C(c2ccccc2)c2cc(C(=O)Sc3ccc(C(=O)O)cc3)ccc21 [I^12a],,> 100,
"CC1(C)CC=C(c2ccccc2)c2cc(COc3ccc(C(=O)O)cc3)ccc21 [I^26a, 4-[[[(5,6-Dihydro-5,5-dimethyl-8-phenyl)-2-naphthalenyl]methyl]oxy]benzoic acid]",,48,
"CC1(C)C=C(c2ccccc2)c2cc(C(=O)Nc3ccc(C(=O)O)cc3)ccc21 [I^30a, 4-[(1,1-Dimethyl-3-phenyl-1H-indene-5-carbonyl)amino]benzoic acid]",,60,2.35
"CC1(C)C=C(c2ccccc2)c2cc(C=Cc3ccc(C(=O)O)cc3)ccc21 [I^33a, 4-[2-(1,1-dimethyl-3-phenyl-1H-inden-5-yl)vinyl]benzoic acid]",,,0.86
